Data on 30 compounds can be found in ChEMBL document CHEMBL1201862, “PubChem BioAssay data set” (2004).

Activity calls are given as the source filed them. For most assays here, no stated cut-off is given here; in the data, actives have a measured EC50 and inactives only a lower limit.

A short description of test [1]: Luminescence Cell-Based Dose Response HTS to Identify Activators of Luciferase Translation or Activity in H4 […] Cells. [Related pubchem assays: 1829 (Project Summary), 1814 (Primary HTS)]. Format: functional.
A further test relates to H4. Put plainly: Luminescence Cell-Based Dose Response HTS to Identify Activators of 5'UTR Stem-Loop Driven Prion Protein mRNA Translation in H4 Neuroglioblastoma Cells. [Related pubchem assays: 1829 (Project Summary), 1814 (Primary HTS)]. The format is functional. The conditions noted are these: Homo sapiens.
Test [2] can be described thus: Luminescence Cell-Based Dose Confirmation HTS to Identify Activators of 5'UTR Stem-Loop Driven Alpha-Synuclein mRNA Translation in H4 Neuroglioblastoma Cells. [Related pubchem assays: 1829 (Project Summary), 1814 (Primary HTS)]. The format is functional.
A further test has as its target Cytochrome P450 2D6 (Homo sapiens, UniProt P10635).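 Further: CYP2D6 member of a cytochrome P450 panel assay.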
The target in test [3] is T1, Zinc finger protein mex-5 (Caenorhabditis elegans, UniProt Q9XUB2).
T1 sequence (Q9XUB2 whole entry): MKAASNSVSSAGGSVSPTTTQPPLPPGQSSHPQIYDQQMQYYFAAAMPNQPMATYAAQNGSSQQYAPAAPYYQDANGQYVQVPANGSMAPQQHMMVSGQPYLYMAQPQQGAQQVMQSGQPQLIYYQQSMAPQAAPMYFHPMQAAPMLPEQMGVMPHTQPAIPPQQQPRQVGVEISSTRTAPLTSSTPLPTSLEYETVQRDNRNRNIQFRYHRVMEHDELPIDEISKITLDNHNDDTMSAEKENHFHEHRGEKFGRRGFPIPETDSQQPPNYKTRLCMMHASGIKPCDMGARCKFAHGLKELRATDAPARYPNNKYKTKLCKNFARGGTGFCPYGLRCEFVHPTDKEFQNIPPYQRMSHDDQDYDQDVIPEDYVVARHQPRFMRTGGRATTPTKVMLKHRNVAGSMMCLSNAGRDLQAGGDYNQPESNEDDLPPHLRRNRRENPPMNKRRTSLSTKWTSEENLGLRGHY
As to the kind of experiment: MEX-5/TCR-2 RNA interaction inhibitors, dose response, biochemical, C. elegans, fluorescence polarization (AID 1960).

The target in test [4] is T2, RNA-binding protein pos-1 (Caenorhabditis elegans, UniProt G5EF15).
T2 sequence (G5EF15 whole entry): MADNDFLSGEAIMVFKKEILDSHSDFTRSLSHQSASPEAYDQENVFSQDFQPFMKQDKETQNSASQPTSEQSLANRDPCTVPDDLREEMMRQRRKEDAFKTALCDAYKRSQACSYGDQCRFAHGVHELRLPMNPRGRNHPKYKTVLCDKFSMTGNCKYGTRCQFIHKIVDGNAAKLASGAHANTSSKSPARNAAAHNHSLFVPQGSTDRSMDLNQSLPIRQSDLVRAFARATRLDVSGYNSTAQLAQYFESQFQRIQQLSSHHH
As to the kind of experiment: inhibitors of POS-1/mex-3 RNA binding, dose response, biochemical, fluorescence polarization (AID 1964).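 Further: purified POS-1 fused to maltose binding protein made in E. coli; potency of compounds blocking POS-1 binding to fluorescent RNA.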

Test [5] addresses T3, Heat shock factor protein 1 (Mus musculus, UniProt P38532).
T3 sequence (P38532 whole entry): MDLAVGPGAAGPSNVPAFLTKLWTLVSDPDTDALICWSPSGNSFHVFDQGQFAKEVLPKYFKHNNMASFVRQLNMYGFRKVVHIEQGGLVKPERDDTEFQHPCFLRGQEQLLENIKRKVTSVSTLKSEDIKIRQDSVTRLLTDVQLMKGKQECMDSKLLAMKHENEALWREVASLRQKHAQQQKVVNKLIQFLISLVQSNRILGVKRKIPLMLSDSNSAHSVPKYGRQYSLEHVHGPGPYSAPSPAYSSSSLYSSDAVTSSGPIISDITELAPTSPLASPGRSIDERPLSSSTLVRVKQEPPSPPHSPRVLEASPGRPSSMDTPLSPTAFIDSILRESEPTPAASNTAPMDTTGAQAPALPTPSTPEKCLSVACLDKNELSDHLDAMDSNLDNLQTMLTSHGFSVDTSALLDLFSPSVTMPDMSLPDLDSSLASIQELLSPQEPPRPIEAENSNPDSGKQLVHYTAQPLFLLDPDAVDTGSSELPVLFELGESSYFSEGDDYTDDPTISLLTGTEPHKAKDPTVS
As to the kind of experiment: HSF1 potentiators in luciferase reporter cells, confirmation, cell-based, NIH3T3, luminescence, dose retest (AID 435004).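 Further: stress induced by proteasome inhibitor MG132 added 30 min after compound; luciferase reporter driven by HSF1 response element in NIH3T3 cells; actives raise luminescence as potentiators of the MG132 stress response.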 Format: functional.

A further test concerns the target Cytochrome P450 3A4 (Homo sapiens, UniProt P08684).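 Further: CYP3A4 tested as one member of a cytochrome P450 panel screen.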
The nature of test [6]: Luminescence Cell-Based Dose Retest to Confirm Inhibitors of Cancer Stem Cells. [Related pubchem assays (depositor defined):AID2717, AID2721]. The format is functional. Conditions: Homo sapiens.
Test [7] has as its target T4, Corticotropin-releasing factor receptor 2/Corticotropin-releasing factor-binding protein (Homo sapiens, UniProt P24387+Q13324).
T4 sequence (Q13324 whole entry): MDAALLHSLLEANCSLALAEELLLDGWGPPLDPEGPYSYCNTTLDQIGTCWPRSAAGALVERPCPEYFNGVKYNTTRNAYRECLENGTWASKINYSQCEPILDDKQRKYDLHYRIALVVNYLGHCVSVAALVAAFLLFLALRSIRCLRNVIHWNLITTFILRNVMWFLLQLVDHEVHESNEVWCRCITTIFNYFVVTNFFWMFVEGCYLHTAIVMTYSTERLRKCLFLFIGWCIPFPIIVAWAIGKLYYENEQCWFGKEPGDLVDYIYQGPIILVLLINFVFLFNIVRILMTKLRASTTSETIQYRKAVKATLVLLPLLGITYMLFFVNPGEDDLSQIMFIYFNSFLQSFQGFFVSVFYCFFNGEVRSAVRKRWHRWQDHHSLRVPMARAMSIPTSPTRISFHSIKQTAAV
T4 sequence (P24387 whole entry): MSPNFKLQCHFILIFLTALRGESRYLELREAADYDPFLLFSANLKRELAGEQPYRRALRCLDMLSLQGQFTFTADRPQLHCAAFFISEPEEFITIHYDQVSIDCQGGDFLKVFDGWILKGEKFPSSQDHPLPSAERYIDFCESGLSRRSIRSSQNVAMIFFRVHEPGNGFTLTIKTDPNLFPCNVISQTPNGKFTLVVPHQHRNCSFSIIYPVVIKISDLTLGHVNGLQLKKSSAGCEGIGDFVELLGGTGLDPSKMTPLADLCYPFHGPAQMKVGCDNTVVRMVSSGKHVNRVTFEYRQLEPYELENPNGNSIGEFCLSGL
Put plainly: activators of CRF receptor 2 with binding protein – uHTS hits, confirmation (AID 602473). The format is functional. The conditions noted are these: read-out: EC50_Mean.

The target of another test is T5, Cytochrome P450 1A2 (Homo sapiens, UniProt P05177).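 Further: PubChem cytochrome P450 panel assay, CYP1A2 panel member.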
T5 sequence (P05177 whole entry): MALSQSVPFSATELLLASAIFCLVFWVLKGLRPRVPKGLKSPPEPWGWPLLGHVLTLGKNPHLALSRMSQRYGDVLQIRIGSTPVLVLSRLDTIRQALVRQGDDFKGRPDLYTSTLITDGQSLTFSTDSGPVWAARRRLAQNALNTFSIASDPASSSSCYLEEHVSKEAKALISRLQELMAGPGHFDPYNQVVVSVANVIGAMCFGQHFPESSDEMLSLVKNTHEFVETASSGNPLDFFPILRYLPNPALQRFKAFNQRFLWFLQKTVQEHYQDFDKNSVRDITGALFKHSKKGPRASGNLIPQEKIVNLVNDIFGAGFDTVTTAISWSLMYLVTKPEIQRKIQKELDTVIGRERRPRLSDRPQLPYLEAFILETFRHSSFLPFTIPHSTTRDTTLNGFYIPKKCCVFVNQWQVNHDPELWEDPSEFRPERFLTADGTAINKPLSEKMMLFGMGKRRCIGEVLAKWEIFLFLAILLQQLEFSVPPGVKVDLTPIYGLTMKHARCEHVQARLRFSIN

The next test concerns SN12K1. Put plainly: cells. The format is functional. Conditions: Homo sapiens.
A further test concerns P388/ADR. As to the kind of experiment: cells. Format: functional. Conditions: Mus musculus.

Sequence of Cytochrome P450 3A4 (P08684 whole entry): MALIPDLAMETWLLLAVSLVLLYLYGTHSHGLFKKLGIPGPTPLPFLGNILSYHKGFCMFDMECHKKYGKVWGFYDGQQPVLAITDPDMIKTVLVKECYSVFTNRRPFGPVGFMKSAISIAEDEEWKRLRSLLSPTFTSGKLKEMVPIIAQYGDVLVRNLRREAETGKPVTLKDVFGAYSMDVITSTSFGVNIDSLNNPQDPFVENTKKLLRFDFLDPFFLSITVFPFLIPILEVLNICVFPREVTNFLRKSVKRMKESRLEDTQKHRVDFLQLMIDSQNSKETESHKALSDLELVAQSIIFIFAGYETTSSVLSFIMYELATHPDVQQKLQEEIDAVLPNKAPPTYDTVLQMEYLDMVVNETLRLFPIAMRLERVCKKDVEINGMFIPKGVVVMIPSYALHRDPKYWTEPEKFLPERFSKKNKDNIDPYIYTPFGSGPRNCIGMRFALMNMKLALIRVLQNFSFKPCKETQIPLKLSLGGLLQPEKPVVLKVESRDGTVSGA
Sequence of Cytochrome P450 2D6 (P10635 whole entry): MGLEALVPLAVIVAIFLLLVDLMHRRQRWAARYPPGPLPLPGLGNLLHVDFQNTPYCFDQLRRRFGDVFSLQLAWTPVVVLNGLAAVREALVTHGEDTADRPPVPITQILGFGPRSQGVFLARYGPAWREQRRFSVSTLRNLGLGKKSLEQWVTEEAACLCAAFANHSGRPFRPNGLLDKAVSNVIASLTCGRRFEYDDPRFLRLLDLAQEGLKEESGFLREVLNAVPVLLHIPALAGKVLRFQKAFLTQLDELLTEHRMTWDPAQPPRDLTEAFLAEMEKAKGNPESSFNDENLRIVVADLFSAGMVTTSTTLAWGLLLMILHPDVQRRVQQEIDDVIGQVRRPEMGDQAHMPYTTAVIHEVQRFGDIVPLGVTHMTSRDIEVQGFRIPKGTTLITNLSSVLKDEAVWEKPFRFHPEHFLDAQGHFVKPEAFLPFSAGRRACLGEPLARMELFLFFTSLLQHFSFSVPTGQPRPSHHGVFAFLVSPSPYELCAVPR

For `CC12CCC(C(=O)Nc3nc4ccccc4s3)(OC1=O)C2(C)C` (configuration not stated), the EC50 was 18.9 µM (active) in test [1], 12.7 µM (active) with H4 and > 60 µM (not active) in [2].

As for `C=CCNC(SCC(=O)c1ccc(Cl)cc1)=C1C(=O)N(C)C(=O)N(C)C1=O`, the results for the EC50 (in test [1]; with H4; in test [2]) were > 120 µM (not active), 19.5 µM (active) and 24.9 µM (active), respectively.

Consider `O=C(Nc1nc2c(F)cc(F)cc2s1)C1CCN(C(=O)c2ccc(F)cc2)CC1`, for which the EC50 was 8.78 µM (active) in test [1], 26.8 µM (active) in the test on H4 and 3.61 µM (active) in test [2].

With `N#C[C@H](c1ccccc1)N1CCCN([C@@H](C#N)c2ccccc2)[C@H]1c1ccccc1O`, the AC50 on Cytochrome P450 2D6 was 5.01 µM (inconclusive).

As to `N#C/C(=C/c1cccn1-c1cccc(C(=O)O)c1)c1ccc(Cl)cc1`, the EC50 in test [3] and in test [4] was > 300 µM (not active) throughout.

Consider `COCCn1c(N)c(N(Cc2ccccc2)C(=O)c2ccc(C#N)cc2)c(=O)[nH]c1=O`, for which, in test [5], the EC50 was > 260 µM (inactive).

As to `Cc1cc(/C=C2\C(=O)NC(=O)N(c3ccc(Br)cc3)C2=O)c(C)n1-c1cc(C(=O)O)cc(C(=O)O)c1`, the EC50 in test [3] and in [4] was > 300 µM (not active) in each case.

With `O[C@H](COc1ccccc1)CN1CCCCC1`, on Cytochrome P450 2D6, the AC50 is 5.01 µM (inconclusive).

Turning to `Cc1ccc(-c2ccc(O)nn2)cc1`, the EC50 in test [5] is > 260 µM (inactive).

For `Cc1ccc(CNC(=O)/C(C#N)=C\c2ccc(N(C)C)cc2)cc1`, the results for the EC50 in [3] and in [4] were > 300 µM (not active) and 43.5 µM (active), respectively.

Turning to `Cc1noc(C)c1C(=O)N1CCC2(CCCN(c3ccccc3)C2)CC1`, the AC50 was 15.8 µM (inconclusive) on Cytochrome P450 3A4 and 12.6 µM (inconclusive) at Cytochrome P450 2D6.

Regarding `CCCOC1CCCN(C(=O)CCc2nnc(Cc3cccc(C)c3)o2)C1` (configuration not stated), the EC50 in test [1] was 16.5 µM (active); in the test with H4 it was 16.5 µM (inconclusive); in [2], 9.73 µM (active).

For the compound `Cc1ccc(C(c2nnnn2C2CCCC2)N2CCc3ccccc32)cc1` (configuration not stated), the EC50 in test [5] is > 260 µM (inactive).

For `O=C(Nc1cc(C(F)(F)F)ccc1Cl)c1cc2nc3c(c(C(F)(F)F)n2n1)CCCC3`, the EC50 in test [1] is 0.365 µM (active); with H4 it was 0.195 µM (active); in test [2], 1.53 µM (active).

As for `CCCC[C@@H]1C[C@H]1C(NC(=O)c1ccco1)c1ccccc1` (some centres not stated), the AC50 was 20 µM (inconclusive) on Cytochrome P450 3A4 and 39.8 µM (inconclusive) on Cytochrome P450 2D6.

For the compound `S=C(N=Nc1ccccc1)NNc1ccccc1`, the EC50 in [1] was 14.1 µM (active); in the test with H4, 27.9 µM (inconclusive); in test [2], 14.4 µM (active).

For the compound `S=C1SCN(C2CCCCCCCCCCC2)CN1C1CCCCCCCCCCC1`, the AC50 at Cytochrome P450 2D6 was 3.16 µM (inconclusive).

For the compound `CNC(=O)c1c(NC(=O)c2ccc(S(=O)(=O)N3CCCc4ccccc43)cc2)sc2c1CCN(C)C2`, the half-maximal activity concentration (AC50) in test [6] was 0.206 µM (active). Besides, the EC50 in test [3] was > 300 µM (not active); in test [4], > 300 µM (not active); in [7], 6.81 µM (active).

For `O=C(c1csnn1)N1CCC2(CC1)CCN(c1ncccn1)CC2`, the AC50 at Cytochrome P450 2D6 is 39.8 µM (inconclusive).

In the case of `CCC/C=C(\CCC)C(NS(C)(=O)=O)c1ccccc1` (configuration not stated), the figures for the AC50 on Cytochrome P450 3A4, at Cytochrome P450 1A2 and on Cytochrome P450 2D6 were 31.6 µM (inconclusive), 25.1 µM (inconclusive) and 39.8 µM (inconclusive), respectively.

Turning to `S=C(NCc1ccco1)N1CCN(c2ccccc2Cl)CC1`, in test [5], the EC50 was > 260 µM (inactive).

For the compound `C[C@H]1CN(C2CCC(C#N)(c3ccc(F)cc3)CC2)CC[C@@]1(C(=O)O)c1ccccc1` (some centres not stated), the AC50 on Cytochrome P450 2D6 was 10 µM (inconclusive).

For `CCN1CCCCC(=N/O)/C(=N/O)CCCC1`, the half-maximal activity concentration (AC50) on Cytochrome P450 2D6 was 1.58 µM (inconclusive).

Turning to `O=S1(=O)N=C(NCC(c2ccco2)N2CCCCC2)c2ccccc21` (configuration not stated), the EC50 in test [5] is > 260 µM (inactive).

As to `C/C(=N\OC(=O)c1ccc(F)cc1)c1ccc(F)c(F)c1`, in test [5], the EC50 was > 260 µM (inactive).

As to `Oc1ccc(Br)cc1/C=N/n1cnc2ccccc21`, the figures for the EC50 (in test [1]; in the test on H4; in [2]) were 15.8 µM (active), 17.9 µM (active) and 11 µM (active), respectively.

In the case of `Cc1ccc(/C=N/N(Cc2ccccc2)c2ccccc2)o1`, in test [5], the EC50 is > 260 µM (inactive).

Regarding `C/C(=N/NC(=O)c1ccoc1C)c1ccc(NC(=O)c2ccncc2)cc1`, the EC50 in [1] is 0.148 µM (inconclusive); in the test with H4, 0.102 µM (active); in [2], 23.9 µM (active).

On to `CC[C@@]1(O)C[C@H](OC2CC(N(C)C)C(OC3CC(O)C(OC4CCC(=O)C(C)O4)C(C)O3)C(C)O2)c2c(cc3c(c2O)C(=O)c2c(O)cccc2C3=O)[C@H]1C(=O)OC` (some centres not stated), for which the GI50 with SN12K1 was 0.0236 µM (active); in the test with P388/ADR, 0.0333 µM (active).

In the case of `COc1c2occc2c(OC)c2c(=O)cc(C)oc12` [KHELLIN], at Cytochrome P450 2D6, the AC50 was 10 µM (inconclusive).
